Experiment [1] addresses T1, ERK5 (activated catalytic domain) (Homo sapiens, UniProt Q13164).
T1 construct: purchased CarnaBiosciences 04-146
Briefly: Cell-Free Assay of ERK5 Inhibition (Time-Resolved FRET, 4EBP1 peptide phosphorylation). As to conditions: ERK5 catalytic domain 4 nM, 1 mM ATP, 1 μM biotinylated 4EBP1 peptide, 30 min at 37° C.; mean where repeated; read-out: Cell-free assay (IC50 in nM). Type of experiment: biochemical. A digest of the protocol: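 Activated ERK5 catalytic domain at 4 nM preincubated 30 min at room temperature with compound, then 1 mM ATP and 1 μM biotinylated 4EBP1 (aa 30-52) peptide added for 30 min at 37° C. Phosphorylation detected by TR-FRET; IC50 versus DMSO control, repeats averaged.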

In experiment [2] the target is T2, ERK5 (Homo sapiens, UniProt Q13164).
T2 construct: MEF2-luciferase reporter
T2 sequence (Q13164 whole entry): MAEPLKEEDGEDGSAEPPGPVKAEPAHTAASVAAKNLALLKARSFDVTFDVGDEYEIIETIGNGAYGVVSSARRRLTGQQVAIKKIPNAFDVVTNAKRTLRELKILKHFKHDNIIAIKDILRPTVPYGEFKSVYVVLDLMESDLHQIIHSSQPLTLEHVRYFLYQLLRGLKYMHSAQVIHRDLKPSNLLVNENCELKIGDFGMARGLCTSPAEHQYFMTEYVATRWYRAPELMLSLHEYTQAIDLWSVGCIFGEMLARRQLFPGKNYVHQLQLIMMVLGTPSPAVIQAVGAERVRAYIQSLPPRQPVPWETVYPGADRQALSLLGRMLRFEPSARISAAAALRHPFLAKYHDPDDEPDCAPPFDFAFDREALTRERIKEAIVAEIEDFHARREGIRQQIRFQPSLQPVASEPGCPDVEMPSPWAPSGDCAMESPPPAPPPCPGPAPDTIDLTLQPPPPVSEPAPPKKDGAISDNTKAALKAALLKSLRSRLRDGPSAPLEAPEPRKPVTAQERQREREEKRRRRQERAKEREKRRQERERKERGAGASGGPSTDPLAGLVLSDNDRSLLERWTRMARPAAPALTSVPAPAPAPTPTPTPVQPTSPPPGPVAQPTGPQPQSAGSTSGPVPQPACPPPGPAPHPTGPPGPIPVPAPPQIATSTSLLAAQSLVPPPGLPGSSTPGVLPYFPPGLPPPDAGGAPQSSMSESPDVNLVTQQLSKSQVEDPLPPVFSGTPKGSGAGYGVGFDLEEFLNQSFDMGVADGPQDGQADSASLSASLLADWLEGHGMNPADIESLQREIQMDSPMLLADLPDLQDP
Briefly: Inhibition of Cellular ERK5 Activity (cell-based assay, MEF2 luciferase reporter in SN12C cells). As to conditions: renal cancer cell line SN12C, doxycycline-induced MEKSDD, mean where repeated. Summed up: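 SN12C cells carrying a MEF2-luciferase reporter and doxycycline-inducible (1 μg/ml) constitutively active MEK5DD, seeded 24 h before compound addition at 0.3–1000 nM (0.1% DMSO final). Luminescence read; IC50 is the concentration giving 50% signal reduction versus DMSO-treated cells.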
Background: In a reporter assay the amount or activity of a reporter protein is the signal.

Results on 8 compounds are retold here after patent US20260297087A1, “Pyridoimidazolone Compounds, Preparation Thereof and Therapeutic Uses Thereof” (Sanofi, priority 2023, published 2026).

T1 sequence (Q13164 55-347 limits assumed): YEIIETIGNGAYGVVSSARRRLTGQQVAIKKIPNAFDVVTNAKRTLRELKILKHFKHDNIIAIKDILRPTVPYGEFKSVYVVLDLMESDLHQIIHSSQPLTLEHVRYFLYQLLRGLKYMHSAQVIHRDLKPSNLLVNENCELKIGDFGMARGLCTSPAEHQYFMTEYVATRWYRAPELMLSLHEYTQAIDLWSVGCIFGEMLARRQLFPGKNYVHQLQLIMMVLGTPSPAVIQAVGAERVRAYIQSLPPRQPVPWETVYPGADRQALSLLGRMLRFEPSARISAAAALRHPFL

In general, IC50 refers to the midpoint of a concentration-inhibition curve. As for `Nc1cc(OC(F)(F)F)ccc1C(=O)N1CCC(n2c(=O)[nH]c3ncc([C@H]4CC[C@H](O)CC4)cc32)CC1` [Example 51, trans-1-[1-[2-amino-4-(trifluoromethoxy)benzoyl]-4-piperidyl]-6-(4-hydroxycyclohexyl)-3H-imidazo[4,5-b]pyridin-2-one], the values for the IC50 in experiment [1] and in experiment [2] were 52 nM and 205 nM, respectively.
For the compound `Nc1cc(OC(F)(F)F)ccc1C(=O)N1CCC(n2c(=O)[nH]c3ncc([C@H]4CC[C@@H](O)CC4)cc32)CC1` [Example 52, cis-1-[1-[2-amino-4-(trifluoromethoxy)benzoyl]-4-piperidyl]-6-(4-hydroxycyclohexyl)-3H-imidazo[4,5-b]pyridin-2-one], the 50% inhibitory concentration (IC50) in experiment [1] is 97 nM; in experiment [2] it was 244 nM.
As to `Nc1cc(OC(F)(F)F)ccc1C(=O)N1CCC(n2c(=O)[nH]c3ncc(C4CCN(CC(F)(F)F)CC4)cc32)CC1` [Example 53, 1-[1-[2-amino-4-(trifluoromethoxy)benzoyl]-4-piperidyl]-6-[1-(2,2,2-trifluoroethyl)-4-piperidyl]-3H-imidazo[4,5-b]pyridin-2-one], the IC50 in experiment [1] amounted to 405 nM; in experiment [2], 184 nM.
With `CN1CCC(c2cnc3[nH]c(=O)n(C4CCN(C(=O)c5ccc(OC(F)(F)F)cc5N)CC4)c3c2)CC1` [Example 54, 1-[1-[2-amino-4-(trifluoromethoxy)benzoyl]-4-piperidyl]-6-(1-methyl-4-piperidyl)-3H-imidazo[4,5-b]pyridin-2-one], the figures for the 50% inhibitory concentration (IC50) in experiment [1] and in experiment [2] were 78 nM and 168 nM, respectively.
`O=C(c1ccc(OC(F)(F)F)cc1)N1CCC(n2c(=O)[nH]c3ncc([C@H]4CC[C@H](O)CC4)cc32)CC1` [Example 57, trans-6-(4-hydroxycyclohexyl)-1-[1-[4-(trifluoromethoxy)benzoyl]-4-piperidyl]-3H-imidazo[4,5-b]pyridine-2-one]: the IC50 turned out to be 180 nM in experiment [1] and 204 nM in experiment [2].
For `O=C(c1ccc(OC(F)(F)F)cc1)N1CCC(n2c(=O)[nH]c3ncc([C@H]4CC[C@@H](O)CC4)cc32)CC1` [Example 58, cis-6-(4-hydroxycyclohexyl)-1-[1-[4-(trifluoromethoxy)benzoyl]-4-piperidyl]-3H-imidazo[4,5-b]pyridin-2-one], the values for the half-inhibitory concentration (IC50) in experiment [1] and in experiment [2] were 288 nM and 222 nM, respectively.
The like results for `CC(C)(C)OC(=O)Nc1cc(OC(F)(F)F)ccc1C(=O)N1CCC(n2c(=O)[nH]c3ncc(Br)cc32)CC1` [Example 59, tert-butyl N-[2-[4-(6-bromo-2-oxo-3H-imidazo[4,5-b]pyridin-1-yl)piperidine-1-carbonyl]-5-(trifluoromethoxy)phenyl]carbamate] were, in that order, 30000 nM and 2150 nM.
In the case of `O=C(c1ccc(OC(F)(F)F)cc1)N1CCC(n2c(=O)[nH]c3ncc(Br)cc32)CC1` [Example 60, 6-bromo-1-[1-[4-(trifluoromethoxy)benzoyl]-4-piperidyl]-3H-imidazo[4,5-b]pyridin-2-one], the IC50 in experiment [1] is 1080 nM; in experiment [2], 641 nM.
